One assay concerns the target T1, Protein skinhead-1 (Caenorhabditis elegans, UniProt P34707).
T1 sequence (P34707 whole entry): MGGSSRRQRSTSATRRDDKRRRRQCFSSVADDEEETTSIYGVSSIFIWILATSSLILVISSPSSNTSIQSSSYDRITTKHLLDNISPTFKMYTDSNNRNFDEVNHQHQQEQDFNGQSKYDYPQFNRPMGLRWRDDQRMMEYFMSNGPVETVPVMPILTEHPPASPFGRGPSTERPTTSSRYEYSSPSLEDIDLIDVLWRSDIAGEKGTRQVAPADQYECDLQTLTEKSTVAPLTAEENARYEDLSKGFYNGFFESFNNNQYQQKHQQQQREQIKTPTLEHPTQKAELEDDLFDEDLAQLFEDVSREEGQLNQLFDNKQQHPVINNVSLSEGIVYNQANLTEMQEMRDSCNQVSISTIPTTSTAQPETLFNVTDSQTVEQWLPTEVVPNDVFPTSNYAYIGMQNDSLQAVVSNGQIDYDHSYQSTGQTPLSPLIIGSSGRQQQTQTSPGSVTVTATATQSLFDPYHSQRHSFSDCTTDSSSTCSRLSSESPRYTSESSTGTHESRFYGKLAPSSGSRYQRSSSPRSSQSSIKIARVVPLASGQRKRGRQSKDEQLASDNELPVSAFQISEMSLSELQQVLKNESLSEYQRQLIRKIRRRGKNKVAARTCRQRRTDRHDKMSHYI
The format is functional.

The nature of assay [1]: non-specific 3'UTR reporter inhibition in Clone20-Shn3RL – cell-based, Renilla luciferase, cherry-picked, counter-screen for Shn3 inhibitor project, dose response (AID 624133). The format is functional. A general note: Counterscreens check selectivity or assay interference.
The next assay concerns INS1. In words: INS-1E survival protection against cytokine death – cell-based, luminescence, retest, dose response (AID 449756).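 Note: cell death triggered by IL-1 beta plus TNF-alpha plus IFN-gamma mixture; protective hits raise ATP signal compared with cytokine alone wells.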 Particulars: Rattus norvegicus. The format is functional.
Assay [2] can be described thus: EF1alpha-driven Renilla reporter with control 3'UTR suppression – Clone20-Shn3RL cells, dual-Glo, cherry-pick, set 2, counter-screen for Shn3 3'UTR targeting project, dose response (AID 720724). The format is functional, cell-based. Particulars: Dual-Go Shn3RL.
Assay [3] in a line: fluconazole-exposed Candida albicans growth modulators – fluorescence, retest, confirmation (AID 2467). The format is functional, cell-based.
In assay [4] the target is T2, Serine/threonine-protein phosphatase (Candida dubliniensis (strain CD36 / CBS 7987 / NCPF 3949 / NRRLY-17841) (Yeast), UniProt B9W6M3).
T2 sequence (B9W6M3 whole entry): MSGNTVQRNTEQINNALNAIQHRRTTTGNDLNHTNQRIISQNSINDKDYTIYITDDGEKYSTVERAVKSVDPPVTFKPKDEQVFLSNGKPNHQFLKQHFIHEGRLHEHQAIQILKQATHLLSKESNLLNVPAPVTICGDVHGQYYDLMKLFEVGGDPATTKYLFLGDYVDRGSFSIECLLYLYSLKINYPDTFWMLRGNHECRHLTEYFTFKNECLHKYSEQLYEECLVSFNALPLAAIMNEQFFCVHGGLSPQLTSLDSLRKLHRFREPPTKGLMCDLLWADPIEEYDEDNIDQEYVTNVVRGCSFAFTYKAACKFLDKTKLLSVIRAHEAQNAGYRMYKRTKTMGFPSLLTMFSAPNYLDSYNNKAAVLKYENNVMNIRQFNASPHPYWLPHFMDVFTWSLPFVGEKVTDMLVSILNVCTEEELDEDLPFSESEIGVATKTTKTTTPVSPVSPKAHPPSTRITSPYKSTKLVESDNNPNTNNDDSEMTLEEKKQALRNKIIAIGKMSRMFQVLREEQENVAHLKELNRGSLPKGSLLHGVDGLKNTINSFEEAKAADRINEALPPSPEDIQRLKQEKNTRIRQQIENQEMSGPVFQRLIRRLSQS
In words: blockers of CaCl2-induced CDRE-lacZ signaling – S. cerevisiae, luminescence, secondary, dose response (AID 2388).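 Note: yeast reporter cells carrying a calcineurin-responsive lacZ construct stimulated with calcium chloride; luminescent beta-galactosidase reporter signal in whole cells rather than isolated phosphatase activity; potency for inhibition where a drop in reporter signal means calcineurin blockade.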 Type of assay: functional, cell-based.

A short description of assay [5]: reduction of Shn3 3'UTR-driven luciferase in osteoblasts – cell-based, Clone20 osteoblasts, firefly luciferase, cherry-picked, dose response (AID 624132).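 Note: firefly luciferase luminescence from reporter carrying the Shn3 3'UTR in osteoblasts.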 The format is functional.
The nature of assay [6]: loss of viability in HepG2 cells – cell-based, CellTiter-Glo, cherry-picked, cytotoxicity control for Shn3 inhibitor project, dose response (AID 624134). Type of assay: functional. For orientation: In ATP-based viability assays light output follows the ATP content of the culture.
A short description of assay [7]: Shn3 3'UTR reporter signal decrease – cell-based, Clone20 osteoblasts, firefly luciferase, cherry-pick, set 2, Schnurri-3 inhibitor project, dose response (AID 720490).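 Note: actives lower the luminescence signal as inhibitors.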 Type of assay: functional.
In assay [8] the target is T2, Serine/threonine-protein phosphatase. In words: Fluorescence Cell-Based Secondary Assay to Identify Inhibitors of Calcineurin. [Related pubchem assays (depositor defined):AID1979, AID2007]. The format is functional.
Assay [9] has as its target ATP-dependent molecular chaperone HSP82 (Candida albicans (strain WO-1) (Yeast), UniProt C4YTQ8). In words: steroid-induced GRE reporter decrease in yeast – S. cerevisiae, luminescence, Hsp90 inhibitor project, dose response (AID 2400).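 Note: beta-galactosidase luminescence from glucocorticoid response element reporter as proxy for Hsp90 function; inhibitor potency where signal loss means Hsp90 inhibition.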 The format is functional, cell-based.
Assay [10] is described as follows: NIH-3T3 fibroblast cytotoxicity, dose response, cytotoxicity control, cell-based, fluorescence, Alamar Blue, secondary assay (AID 2327).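 Note: NIH-3T3 mouse fibroblasts cultured with fluconazole at 8 µg/mL.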 The format is functional. In general terms: The colour change of resazurin is a common sign of viable cells or microbes.
Assay [11] in a line: anti-trypanosomal activity in BESM host cells – imaging, CA-I/72 strain, bovine embryo skeletal muscle, dry powder, dose response (AID 651885). Type of assay: functional, cell-based.
For assay [12], the target named is Fructose-bisphosphate aldolase (Mycobacterium tuberculosis, UniProt P9WQA3). In words: Fluorescence-based biochemical high throughput dose response assay for inhibitors of the fructose-bisphosphate aldolase (FBA) of M. tuberculosis. The format is functional.
Fructose-bisphosphate aldolase, sequence (P9WQA3 whole entry): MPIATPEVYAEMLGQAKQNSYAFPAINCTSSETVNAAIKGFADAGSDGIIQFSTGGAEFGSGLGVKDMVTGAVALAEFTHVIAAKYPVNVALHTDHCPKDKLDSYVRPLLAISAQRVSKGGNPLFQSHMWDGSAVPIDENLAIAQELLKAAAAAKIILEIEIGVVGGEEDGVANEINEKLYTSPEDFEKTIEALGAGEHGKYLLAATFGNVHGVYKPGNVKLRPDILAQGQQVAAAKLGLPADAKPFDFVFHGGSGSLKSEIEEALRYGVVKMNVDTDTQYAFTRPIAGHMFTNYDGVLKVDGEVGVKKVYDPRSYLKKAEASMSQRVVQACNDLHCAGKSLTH
Assay [13] can be described thus: Luminescence Cell-Based Dose Confirmation HTS to Identify Activators of 5'UTR Stem-Loop Driven Alpha-Synuclein mRNA Translation in H4 Neuroglioblastoma Cells. [Related pubchem assays: 1829 (Project Summary), 1814 (Primary HTS)]. The format is functional.
A short description of assay [14]: Luminescence Cell-Based Dose Response HTS to Identify Activators of Luciferase Translation or Activity in H4 […] Cells. [Related pubchem assays: 1829 (Project Summary), 1814 (Primary HTS)]. The format is functional.
The next assay deals with H4. The assay is described as follows: Luminescence Cell-Based Dose Response HTS to Identify Activators of 5'UTR Stem-Loop Driven Prion Protein mRNA Translation in H4 Neuroglioblastoma Cells. [Related pubchem assays: 1829 (Project Summary), 1814 (Primary HTS)]. As to conditions: Homo sapiens. Type of assay: functional.
A further assay addresses Paired box protein Pax-8 (Homo sapiens, UniProt Q06710). The assay is described as follows: PAX8 transcriptional activity inhibition in RMG-I – RMG-I cells, luciferase, cherry-pick, dose response (AID 687027).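 Note: luciferase reporter driven by Pax8 target thyroperoxidase promoter measured by SteadyGlo luminescence.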 Type of assay: functional, cell-based.
Assay [15] is described as follows: CMV-driven luciferase expression suppression in HEK293 – cell-based, luminescence, dry powder, counter-screen for Pax8 inhibitor project, dose response (AID 743020). Type of assay: functional.

Molecules are shown by their SMILES. Active and inactive are the calls of the source. A value given as a limit tells only on which side of the number the result lay.

Paired box protein Pax-8, sequence (Q06710 whole entry): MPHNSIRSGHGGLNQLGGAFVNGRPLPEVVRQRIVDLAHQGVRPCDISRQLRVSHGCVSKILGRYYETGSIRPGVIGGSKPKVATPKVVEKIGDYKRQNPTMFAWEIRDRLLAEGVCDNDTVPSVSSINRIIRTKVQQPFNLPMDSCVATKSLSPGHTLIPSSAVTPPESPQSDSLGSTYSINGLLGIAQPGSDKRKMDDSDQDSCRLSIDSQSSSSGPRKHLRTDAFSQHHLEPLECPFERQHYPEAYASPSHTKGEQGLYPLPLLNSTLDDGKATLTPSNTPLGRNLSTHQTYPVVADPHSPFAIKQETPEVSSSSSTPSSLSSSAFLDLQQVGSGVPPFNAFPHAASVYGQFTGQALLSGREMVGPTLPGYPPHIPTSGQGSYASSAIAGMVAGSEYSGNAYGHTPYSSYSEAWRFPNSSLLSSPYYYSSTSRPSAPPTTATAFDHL
ATP-dependent molecular chaperone HSP82, sequence (C4YTQ8 whole entry): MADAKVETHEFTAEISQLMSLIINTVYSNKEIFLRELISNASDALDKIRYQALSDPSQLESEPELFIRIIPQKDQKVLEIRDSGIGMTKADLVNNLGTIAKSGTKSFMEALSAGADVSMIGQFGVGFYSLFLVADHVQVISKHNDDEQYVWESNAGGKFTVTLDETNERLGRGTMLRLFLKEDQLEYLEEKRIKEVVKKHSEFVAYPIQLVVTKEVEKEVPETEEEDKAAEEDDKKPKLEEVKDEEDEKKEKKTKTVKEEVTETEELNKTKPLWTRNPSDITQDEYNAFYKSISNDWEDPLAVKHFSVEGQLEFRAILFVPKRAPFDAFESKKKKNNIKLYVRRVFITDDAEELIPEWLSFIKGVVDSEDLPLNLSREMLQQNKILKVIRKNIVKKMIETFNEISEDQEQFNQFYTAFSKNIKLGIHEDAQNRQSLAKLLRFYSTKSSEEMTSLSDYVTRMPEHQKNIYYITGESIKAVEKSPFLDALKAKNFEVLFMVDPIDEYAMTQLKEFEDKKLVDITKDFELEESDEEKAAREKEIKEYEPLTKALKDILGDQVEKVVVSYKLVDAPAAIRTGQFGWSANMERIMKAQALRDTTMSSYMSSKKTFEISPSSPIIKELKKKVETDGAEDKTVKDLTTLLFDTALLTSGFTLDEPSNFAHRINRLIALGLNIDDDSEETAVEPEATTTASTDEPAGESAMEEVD

What is called IC50 is the concentration that inhibits the measured activity by half. By AC50 is commonly meant the concentration giving half of the maximal activity seen. In general, EC50 refers to the concentration giving half of the maximal effect. As for `Cc1nc2ccccc2cc1OCc1ccc(F)cc1`, on Protein skinhead-1, the half-maximal inhibitory concentration (IC50) was 12.2 µM (active). For the same compound, the concentration at half-maximal activity (AC50) was 22.1 µM (active) in assay [1]; 4.84 µM (active) in the assay on INS1; 4.87 µM (active) in assay [2]; 1.7 µM (active) in [5]; 41.7 µM (active) in [6]; 2.05 µM (active) in [7]. The EC50 in [3] is 1.58 µM (active); in [4], > 180 µM (inactive); in [8], > 285 µM (inactive); in assay [9], 21.1 µM (active); in assay [10] it was > 160 µM (inactive).

For `CNC[C@@H]1Oc2c(NC(=O)c3ccncc3)cccc2C(=O)N(C(C)C)C[C@H]1C`, in assay [11], the IC50 was > 20 µM (inactive).

Turning to `O=c1c2ccccc2n(CC(O)CN2CCCCC2)c2ccccc12` (stereo not given), the AC50 in “cells” was 3.43 µM (active).

Take `Cc1ccc(C2CC(c3ccccc3)=NN2c2ccccc2)o1` (stereo not given): the IC50 in [12] was > 0.37 µM (active). The EC50 in assay [13] was 111 µM (active); in assay [14], > 120 µM (not active); in the assay with H4 it was 27.9 µM (active).

In the case of `C[C@@H]1CCCCO[C@H](CN(C)CC2CCCCC2)[C@H](C)CN([C@@H](C)CO)C(=O)c2cc(NS(=O)(=O)c3ccc(Cl)cc3)ccc2O1`, the results for the AC50 (on Paired box protein Pax-8; in [15]) were 6.43 µM (active) and 50.5 µM (active), respectively.

Values taken from ChEMBL document CHEMBL1201862, “PubChem BioAssay data set” (2004).
